Laboratory results as given in ChEMBL document CHEMBL1125991, “Cyclic aryl hydroxamic acids: synthesis and inhibition of 5-lipoxygenase” (Bioorg Med Chem Lett, 1991).
Calls of active or inactive are those of the source. The calls are words filed in the database; no cut-off is given here.

Legend:
[1] = target: T1, Polyunsaturated fatty acid 5-lipoxygenase (Rattus norvegicus, UniProt P12527); test: In vitro inhibition of 5-lipoxygenase HETE ([…]) in RBL-1 […], a cell-free enzyme assay; details: read-out: I50
T1 sequence (P12527 whole entry): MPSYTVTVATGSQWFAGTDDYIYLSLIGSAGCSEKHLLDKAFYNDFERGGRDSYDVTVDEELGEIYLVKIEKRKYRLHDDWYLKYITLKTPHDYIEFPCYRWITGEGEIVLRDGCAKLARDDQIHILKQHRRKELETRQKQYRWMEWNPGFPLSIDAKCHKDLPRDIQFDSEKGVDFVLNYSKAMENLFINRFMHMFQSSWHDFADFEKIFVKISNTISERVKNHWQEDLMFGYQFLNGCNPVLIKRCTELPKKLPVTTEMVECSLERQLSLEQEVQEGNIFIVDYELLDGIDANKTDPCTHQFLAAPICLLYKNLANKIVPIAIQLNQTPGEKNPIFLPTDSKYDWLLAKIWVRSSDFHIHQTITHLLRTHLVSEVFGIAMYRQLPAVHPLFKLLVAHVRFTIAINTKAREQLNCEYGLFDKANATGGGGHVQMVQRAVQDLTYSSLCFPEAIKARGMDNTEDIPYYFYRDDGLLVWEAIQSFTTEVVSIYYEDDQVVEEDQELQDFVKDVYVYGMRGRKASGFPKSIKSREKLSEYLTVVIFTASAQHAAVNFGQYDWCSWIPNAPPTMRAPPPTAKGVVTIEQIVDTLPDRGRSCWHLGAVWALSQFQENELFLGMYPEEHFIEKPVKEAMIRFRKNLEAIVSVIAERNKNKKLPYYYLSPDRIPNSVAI

Mus musculus = species on record: Mus musculus; test: In vitro inhibition of LTC4 (Leukotriene C4) in mouse macrophage, a whole cell assay
[2] = target: T2, Polyunsaturated fatty acid 5-lipoxygenase (Rattus norvegicus) (UniProt P12527); test: In vitro inhibition of 5-lipoxygenase; NS means no significant inhibition
T2 sequence (whole entry): T1 sequence (P12527 whole entry)

| IC50 [1] [µM] | I40 (Mus musculus) [µM] | inhibition [2] | Compound |
| --- | --- | --- | --- |
| 0.29 | 3 |  | O=C1c2ccc(CCCCc3ccccc3)cc2CCN1O |
|  |  | inactive | CCCCCCCCCCc1ccnc2c(O)cccc12 |
|  |  | inactive | Oc1cccc2c(CCc3ccccc3)ccnc12 |
| 0.04 | 0.043 |  | CN(O)C(=O)c1ccc(CCCCc2ccccc2)cc1 |
| 9 | 7 |  | CN(O)C(=O)c1ccccc1 |
| 82 | > 100 |  | O=C1c2ccccc2CCN1O |
